Laboratory results as given in US20250017940A1, “SELECTIVE PEPTIDOMIMETIC MODULATORS OF CAV2.2 (N-TYPE) VOLTAGE-GATED CALCIUM CHANNELS AND USES THEREOF” (New York University, priority 2023, published 2025).

How the values were obtained:
total Ca2+ currents = assay: Whole-cell patch-clamp, total Ca2+ currents in small-to-medium DRG neurons; assay type: cell-based, rat; conditions: 20 μM overnight; normalized to 0.1% DMSO control (1.00±0.06)
Procedure: Recordings were obtained from acutely dissociated DRG neurons as described earlier (Bellampalli et al., 2019). Patch-clamp recordings were performed at room temperature (22-24° C.). Currents were recorded using an EPC 10 Amplifier-HEKA (HEKA Elektronik, Ludwigshafen, Germany) linked to a computer with Patchmaster software. DRG neurons were incubated overnight (˜16-24 hours) with 20 μM of CBD3063.
For total calcium current (ICa^2+) recordings, the external solution consisted of the following (in mM): 110 N-methyl-D-glucamine, 10 BaCl2, 30 TEA-Cl, 10 HEPES, 10 glucose, and 0.001 TTX (pH 7.29 adjusted with TEA-OH, and mOsm/L=310). Patch pipettes were filled with an internal solution containing (in mM): 150 CsCl2, 10 HEPES, 5 Mg-ATP, and 5 BAPTA, (pH 7.2 adjusted with CsOH, and mOsm/L-305). Peak Ca^2+ current was acquired by applying 200-millisecond voltage steps from −70 to +60 mV in 10-mV increments from a holding potential of −90 mV to obtain the current-voltage (I-V) relation. To measure the different subtypes of Ca^2+ channels, DRGs were treated with a Cav inhibitor cocktail omitting the inhibitor specific to the subtype being tested (e.g., to measure Cav2.2 currents, ω-conotoxin GVIA is omitted): Nifedipine (10 μM, L-type), ω-Conotoxin-GVIA (500 nM, […]) (Feng, et al., 2001), SNX482 (200 nM, R-type) (Newcomb et al., 1998), ω-agatoxin (200 nM, P/Q-type) (Mintz et al., 1992), TTA-P2 (1 μM, T-type) (Choe et al., 2011).
Normalization of currents to each cell's capacitance (pF) was performed to allow for collection of current density data. For I-V curves, functions were fitted to data using a non-linear least squares analysis. I-V curves were fitted using double Boltzmann functions:
where x is the pre-pulse potential, V1/2 is the mid-point potential, and k is the corresponding slope factor for single Boltzmann functions. Double Boltzmann fits were used to describe the shape of the curve, not to imply the existence of separate channel populations. Numbers 1 and 2 simply indicate first and second mid-points; a along with g are fitting parameters.
Activation curves were obtained from the I-V curves by dividing the peak current at each depolarizing step by the driving force according to the equation: G=I/(Vmem-Erev), where I is the peak current, Vmem is the membrane potential and Erev is the reversal potential. The conductance (G) was normalized against the maximum conductance (Gmax). For total and the different subtypes of Ca^2+ currents, steady-state inactivation (SSI) curves were obtained by applying an H-infinity protocol that consisted of 1.5-seconds conditioning pre-pulses from −100 to +30 mV in 10-mV increments followed by a 20-millisecond test pulse to +10 mV. For Na^+ currents, SSI curves were obtained by applying an H-infinity protocol that consisted of 1-second conditioning pre-pulses from −120 to +10 mV in 10-mV increments followed by a 200-millisecond test pulse to +10 mV. Inactivation curves were obtained by dividing the peak current recorded at the test pulse by the maximum current (Imax). Activation and SSI curves were fitted with the Boltzmann equation.

[1] = Preliminary tests of analgesic properties

| Compound | normalized peak total ICa2+ density (total Ca2+ currents) | analgesic properties [1] |
| --- | --- | --- |
| N=C(NCCCN1CCc2ccccc2C1)NCc1ccccc1 [CBD3065, N′-benzyl-N-[3-(3,4-dihydro-1H-isoquinolin-2-yl)propyl]guanidine] | 0.52±0.07 ratio to DMSO control | did not exhibit analgesic properties |
| COc1ccccc1CNC(=N)NCCCN1Cc2ccccc2C1 [CBD3074, N-[3-(1,3-dihydroisoindol-2-yl)propyl]-N′-[(2-methoxyphenyl)methyl]guanidine] | 0.58±0.06 ratio to DMSO control | – |
